According to EP0411494A2, “Ergoline derivatives having dopaminergic activity” (priority 1989, dated 1991):

Tests used:
guinea pig platelet = test: In vitro guinea pig platelet aggregation induced by ADP; format: cell-based; settings: guinea pig platelets
mouse = test: Locomotor activity in the mouse; format: in vivo
reserpinized rat = test: Antihyperprolactinemic activity in the reserpinized rat; format: in vivo; settings: for Plasmatic prolactin % reduction: reserpinized rat
[1] = test system: isolated uterus of female rat; test: Antiserotonin activity in vitro on isolated uterus of female rat; settings: for ED₅₀: antiserotonin activity, isolated uterus of female rat
Text: All the compounds of the invention have a marked antiserotonin activity in vitro test on isolated uterus of female rat.

rat seminal vesicle = test: Adrenolytic activity in the rat seminal vesicle test in vitro
Text: Most of the compounds of formula (I) have a marked adrenolytic activity in the rat seminal vesicle test in vitro.

[2] = test system: Spontaneously hypertensive rats (SHR); test: Antihypertensive activity on spontaneously hypertensive rats (SHR); format: in vivo, rat; settings: for Mean arterial pressure % reduction: SHR
Text: All the compounds of formula (I) have antihypertensive activity on Spontaneously hypertensive rats (SHR), as clearly shown by the results reported in the following Table III.

rat = test: Stereotypy test in the rat; format: in vivo; settings: dose 10 mg/kg i.p.
[3] = After 1 hour, dose 0.25 mg/kg os
[4] = After 2 hours, dose 0.50 mg/kg os

Molecule | Platelet aggregation % reduction (guinea pig platelet; Dose 40 mcg/ml) [%] | % inhibition (mouse; dose 20 mg/kg i.p.) [%] | Plasmatic prolactin % reduction (reserpinized rat; [3]) [%] | Plasmatic prolactin % reduction (reserpinized rat; [4]) [%] | antihyperprolactinemic activity (reserpinized rat; result in words) | ED₅₀ [1] [µg/mL] | antiserotonin activity ([1]; result in words) | ED₅₀ (rat seminal vesicle) [µg/mL] | Mean arterial pressure % reduction ([2]; dose = 1 mg/kg i.p.) [%] | Mean arterial pressure % reduction ([2]; dose = 3 mg/kg i.p.) [%] | hypotensive / antihypertensive activity ([2]; result in words) | Platelet aggregation % reduction (guinea pig platelet; Dose 80 mcg/ml) [%] | % inhibition (mouse; dose 10 mg/kg i.p.) [%] | Mean score (rat)
CN(C[C@@H]1C=C2c3cccc4[nH]cc(c34)C[C@H]2N(C)C1)C1CC1 [P 1427, N-methyl-N-cyclopropyl-9,10-didehydro-6-methylergoline-8β-methanamine] | 25 | 92.7 | 67.2 | 86.6 | interesting | 0.004 | high | 0.70 | 35.6 | 32.4 | high |  |  | 
α-Bromocryptine [reference compound] |  |  | 78.2 | 80.9 |  | 0.470 |  |  |  |  |  | 25 | 78.7 | 2.25
